# Measured values from ChEMBL document CHEMBL4477238, “Ligand binding cooperativity: Bioisosteric replacement of CO with SO2 among thrombin inhibitors” (Bioorg Med Chem Lett, 2016).
# Target: Prothrombin (Homo sapiens, UniProt P00734)
# Assay: Inhibition of human alpha-thrombin using chromogenic substrate Pefachrome tPa measured every second for 20 mins by spectrophotometry
row,Structure (SMILES),Ki
1,CC(C)CC(=O)N1CCC[C@H]1C(=O)NCc1ccc(C(=N)N)cc1,4 µM
2,N=C(N)c1ccc(CNC(=O)[C@@H]2CCCN2C(=O)Cc2ccccc2)cc1,0.2 µM
3,CCS(=O)(=O)N1CCC[C@H]1C(=O)NCc1ccc(C(=N)N)cc1,117 µM
4,N=C(N)c1ccc(CNC(=O)[C@@H]2CCCN2S(=O)(=O)Cc2ccccc2)cc1,2.5 µM
5,CCCS(=O)(=O)N1CCC[C@H]1C(=O)NCc1ccc(C(=N)N)cc1,12 µM

# Continued, values first:
row,Ki,Structure (SMILES)
1,3.4 µM,CC(C)CS(=O)(=O)N1CCC[C@H]1C(=O)NCc1ccc(C(=N)N)cc1
2,2.7 µM,CC(C)CCS(=O)(=O)N1CCC[C@H]1C(=O)NCc1ccc(C(=N)N)cc1
